According to patent US20240216281A1, “MANUFACTURING METHOD OF MEDICATION” (YUNG SHIN PHARM. IND. CO., LTD., priority 2022, published 2024):

Experiment: particle size distribution (PSD) of crystals within the medication
Assay type: physicochemical
Details: first embodiment: dry powder filling technology

## OCc1ccc(-c2nn(Cc3ccccc3)c3ccccc23)o1 [YC-1 compound]
  10% of the crystals having a particle size (D10) of less than: less than 0.648 μm
  50% of the crystals having a particle size (D50) of less than: less than 14.061 μm
  90% of the crystals having a particle size (D90) of less than: less than 215.136 μm

## CC1(C)O[C@@H]2C[C@H]3[C@@H]4CCC5=CC(=O)C=C[C@]5(C)[C@@]4(F)[C@@H](O)C[C@]3(C)[C@]2(C(=O)CO)O1 [triamcinolone acetonide]
  10% of the crystals having a particle size (D10) of less than: less than 4.444 μm
  50% of the crystals having a particle size (D50) of less than: less than 11.189 μm
Unit not given
  90% of the crystals having a particle size (D90) of less than: less than 30.504
